Reference: ChEMBL document CHEMBL3112408, “1,2,3-triazole-, arylamino- and thio-substituted 1,4-naphthoquinones: potent antitumor activity, electrochemical aspects, and bioisosteric replacement of C-ring-modified lapachones” (Bioorg Med Chem, 2014)
pIC50: −log10 of the molar value.

Tests used:
L929 = assay: Cytotoxicity against mouse L929 cells assessed as cell viability after 72 hrs by MTT assay; type: ADME, cell-based; details: L929, 72 h
V79 = assay: Cytotoxicity against chinese hamster V79 cells assessed as cell viability after 72 hrs by MTT assay; type: cell-based; details: Cricetulus griseus, V79, 72 h
PBMC = assay: Cytotoxicity against human PBMC assessed as cell viability after 72 hrs by MTT assay; type: cell-based
[1] = Cytotoxicity against human Hs578T cells assessed as cell viability after 72 hrs by MTT assay; type: functional, cell-based; details: Hs-578T
MX1 = assay: Cytotoxicity against human MX1 cells assessed as cell viability after 72 hrs by MTT assay; type: functional, cell-based; details: MX1, 72 h
MCF7 = assay: Cytotoxicity against human MCF7 cells assessed as cell viability after 72 hrs by MTT assay; type: functional, cell-based; details: MCF7, 72 h
DU-145 = assay: Cytotoxicity against human DU145 cells assessed as cell viability after 72 hrs by MTT assay; type: functional, cell-based; details: DU-145, 72 h
PC-3 = assay: Cytotoxicity against human PC3 cells assessed as cell viability after 72 hrs by MTT assay; type: functional, cell-based; details: PC-3, 72 h
HCT-116 = assay: Cytotoxicity against human HCT116 cells assessed as cell viability after 72 hrs by MTT assay; type: functional, cell-based; details: HCT-116, 72 h
[2] = Cytotoxicity against human HCT8 cells assessed as cell viability after 72 hrs by MTT assay; type: functional, cell-based; details: HCT-8, 72 h
MDA-MB-435 = assay: Cytotoxicity against human MDA-MB-435 cells assessed as cell viability after 72 hrs by MTT assay; type: functional, cell-based; details: MDA-MB-435, 72 h
SF-295 = assay: Cytotoxicity against human SF295 cells assessed as cell viability after 72 hrs by MTT assay; type: functional, cell-based; details: SF-295, 72 h
OVCAR-8 = assay: Cytotoxicity against human OVCAR8 cells assessed as cell viability after 72 hrs by MTT assay; type: functional, cell-based; details: OVCAR-8, 72 h
HL-60 = assay: Cytotoxicity against human HL60 cells assessed as cell viability after 72 hrs by MTT assay; type: functional, cell-based; details: HL-60, 72 h

Structure (SMILES): CC1(C)CC(Nc2ccc(I)cc2)C2=C(O1)C(=O)c1ccccc1C2=O (configuration not stated)
- pIC50 (L929): 5.64
- pIC50 (V79): 5.59
- pIC50 (PBMC): 5.49
- pIC50 [1]: 5.04
- pIC50 (MX1): 4.97
- pIC50 (MCF7): 5.12
- pIC50 (DU-145): 4.97
- pIC50 (PC-3): 5.04
- pIC50 (HCT-116): < 5.00
- pIC50 [2]: < 5.00
- pIC50 (MDA-MB-435): 5.05
- pIC50 (SF-295): 5.04
- pIC50 (OVCAR-8): < 5.00
- pIC50 (HL-60): 5.16

Structure (SMILES): O=C1C(Br)=C(NCc2cn(CCN3C(=O)c4ccccc4C3=O)nn2)C(=O)c2ccccc21
- pIC50 (L929): < 5.05
- pIC50 (V79): < 5.05
- pIC50 (PBMC): < 5.05
- pIC50 [1]: < 5.05
- pIC50 (MX1): < 5.05
- pIC50 (MCF7): < 5.05
- pIC50 (DU-145): < 5.05
- pIC50 (PC-3): < 5.05
- pIC50 (HCT-116): < 5.05
- pIC50 [2]: < 5.05
- pIC50 (MDA-MB-435): < 5.05
- pIC50 (SF-295): < 5.05
- pIC50 (OVCAR-8): < 5.05
- pIC50 (HL-60): < 5.05

Structure (SMILES): O=C1C=C(NCc2cn(CCCN3C(=O)c4ccccc4C3=O)nn2)C(=O)c2ccccc21
- pIC50 (L929): < 4.96
- pIC50 (V79): < 4.96
- pIC50 (PBMC): < 4.96
- pIC50 [1]: < 4.96
- pIC50 (MX1): < 4.96
- pIC50 (MCF7): < 4.96
- pIC50 (DU-145): < 4.96
- pIC50 (PC-3): < 4.96
- pIC50 (HCT-116): < 4.96
- pIC50 [2]: < 4.96
- pIC50 (MDA-MB-435): < 4.96
- pIC50 (SF-295): < 4.96
- pIC50 (OVCAR-8): < 4.96
- pIC50 (HL-60): < 4.96

Structure (SMILES): O=C1C=C(NCc2cn(C3=CC(=O)c4ccccc4C3=O)nn2)C(=O)c2ccccc21
- pIC50 (L929): 5.28
- pIC50 (V79): 5.21
- pIC50 (PBMC): 5.17
- pIC50 [1]: 5.25
- pIC50 (MX1): 5.43
- pIC50 (MCF7): 5.44
- pIC50 (DU-145): 5.27
- pIC50 (PC-3): 5.30
- pIC50 (HCT-116): < 4.92
- pIC50 [2]: 5.57
- pIC50 (MDA-MB-435): 5.51
- pIC50 (SF-295): 5.42
- pIC50 (OVCAR-8): 5.54
- pIC50 (HL-60): 6.10

Structure (SMILES): CC1(C)OC2=C(C(=O)c3ccccc3C2=O)C1Sc1ccccc1 (configuration not stated)
- pIC50 (L929): 4.86
- pIC50 (V79): < 4.83
- pIC50 (PBMC): < 4.83
- pIC50 [1]: 5.49
- pIC50 (MX1): 5.19
- pIC50 (MCF7): 5.13
- pIC50 (DU-145): 5.16
- pIC50 (PC-3): 5.22
- pIC50 (HCT-116): 5.48
- pIC50 [2]: 5.65
- pIC50 (SF-295): 5.04
- pIC50 (OVCAR-8): 5.22
- pIC50 (HL-60): 6.33

Structure (SMILES): O=C1C(Cl)=C(NCc2cn(CCCN3C(=O)c4ccccc4C3=O)nn2)C(=O)c2ccccc21
- pIC50 (L929): < 5.00
- pIC50 (V79): < 5.00
- pIC50 (PBMC): < 5.00
- pIC50 [1]: < 5.00
- pIC50 (MX1): < 5.00
- pIC50 (MCF7): < 5.00
- pIC50 (DU-145): < 5.00
- pIC50 (PC-3): < 5.00
- pIC50 (HCT-116): < 5.00
- pIC50 [2]: < 5.00
- pIC50 (MDA-MB-435): < 5.00
- pIC50 (SF-295): < 5.00
- pIC50 (OVCAR-8): < 5.00
- pIC50 (HL-60): < 5.00

Structure (SMILES): CC1(C)CC(Nc2cccc(Br)c2)C2=C(O1)C(=O)c1ccccc1C2=O (configuration not stated)
- pIC50 (L929): 5.42
- pIC50 (V79): 5.49
- pIC50 (PBMC): 5.30
- pIC50 [1]: 4.94
- pIC50 (MX1): 5.06
- pIC50 (MCF7): 5.00
- pIC50 (DU-145): 4.98
- pIC50 (PC-3): 5.01
- pIC50 (HCT-116): < 4.92
- pIC50 [2]: < 4.92
- pIC50 (MDA-MB-435): 5.02
- pIC50 (SF-295): 5.06
- pIC50 (OVCAR-8): 4.98
- pIC50 (HL-60): 5.12

Structure (SMILES): O=C1C=C(n2cc(CNC3=C(Br)C(=O)c4ccccc4C3=O)nn2)C(=O)c2ccccc21
- pIC50 (L929): < 5.00
- pIC50 (V79): < 5.00
- pIC50 (PBMC): < 5.00
- pIC50 [1]: < 5.00
- pIC50 (MX1): < 5.00
- pIC50 (MCF7): < 5.00
- pIC50 (DU-145): < 5.00
- pIC50 (PC-3): < 5.00
- pIC50 (HCT-116): < 5.00
- pIC50 [2]: < 5.00
- pIC50 (MDA-MB-435): < 5.00
- pIC50 (SF-295): < 5.00
- pIC50 (OVCAR-8): < 5.00
- pIC50 (HL-60): < 5.00

Structure (SMILES): O=C1C(Cl)=C(NCc2cn(CCCCN3C(=O)c4ccccc4C3=O)nn2)C(=O)c2ccccc21
- pIC50 (L929): < 5.00
- pIC50 (V79): < 5.00
- pIC50 (PBMC): < 5.00
- pIC50 [1]: < 5.00
- pIC50 (MX1): < 5.00
- pIC50 (MCF7): < 5.00
- pIC50 (DU-145): < 5.00
- pIC50 (PC-3): < 5.00
- pIC50 (HCT-116): < 5.00
- pIC50 [2]: < 5.00
- pIC50 (MDA-MB-435): < 5.00
- pIC50 (SF-295): < 5.00
- pIC50 (OVCAR-8): < 5.00
- pIC50 (HL-60): < 5.00

Structure (SMILES): CC1(C)CC(Nc2cccc(F)c2)C2=C(O1)C(=O)c1ccccc1C2=O (configuration not stated)
- pIC50 (L929): 5.49
- pIC50 (V79): 5.57
- pIC50 (PBMC): 5.35
- pIC50 [1]: 5.11
- pIC50 (MX1): 5.15
- pIC50 (MCF7): 5.16
- pIC50 (DU-145): 5.06
- pIC50 (PC-3): 5.11

Structure (SMILES): O=C1C=C(NCc2cn(CCN3C(=O)c4ccccc4C3=O)nn2)C(=O)c2ccccc21
- pIC50 (L929): < 4.96
- pIC50 (V79): < 4.96
- pIC50 (PBMC): < 4.96
- pIC50 [1]: < 4.96
- pIC50 (MX1): < 4.96
- pIC50 (MCF7): < 4.96
- pIC50 (DU-145): < 4.96
- pIC50 (PC-3): < 4.96
- pIC50 (HCT-116): < 4.96
- pIC50 [2]: < 4.96
- pIC50 (MDA-MB-435): < 4.96
- pIC50 (SF-295): < 4.96
- pIC50 (OVCAR-8): < 4.96
- pIC50 (HL-60): < 4.96
